Experimental data as given in patent publication US20060037100A1, “Fungal resistant transgenic pepper plants and their production method” (priority 2004, published 2006).

System: pepper cells
Experiment: Hygromycin sensitivity of pepper cells (growth of hypocotyl explants on SIM medium)
Assay type: cell-based, Capsicum annuum L. (pepper)
Procedure: The sensitivity of untransformed wild type (WT) and transformed (T) hypocotyl explants to hygromycin B was examined by using shoot induction medium containing 0, 5, 10, 20, 50 mg/l of hygromycin B (A). Fresh weight (mg) of hypocotyl explants growing on the medium containing hygromycin B (B).
Selection of transgenic cells was preformed in medium containing 20 mg/l hygromycin B in all experiments.

**Q.** Which results are given for `CN[C@H]1C[C@@H](N)[C@H](O)[C@@H](O[C@@H]2O[C@H](CO)[C@H](O)[C@@H]3OC4(O[C@H]23)O[C@H]([C@@H](N)CO)[C@H](O)[C@H](O)[C@H]4O)[C@@H]1O` (some centres unmarked) [hygromycin B]?
**A.** effect on the growth of pepper cells (hygromycin B 5 mg/l in SIM medium, after 14 days of culture): severe inhibitory effect; hygromycin B concentration up to which transgenic cells showed resistance (transgenic (transformed) pepper cells on SIM medium): up to 50 mg/l
